Results: ChEMBL document CHEMBL4017512 (J Med Chem, 2017)

Assays:
HCT-116 = assay: Antiproliferative activity against human HCT116 cells after 72 hrs by phosphatase assay; type: functional, cell-based; details: HCT-116, 72 h
[1] = Cytotoxicity against human HCT116/VM46 cells assessed as reduction in cell viability after 72 hrs by phosphatase assay; type: cell-based; details: HCT-116/VM46, 72 h
L1210 = assay: Antiproliferative activity against mouse L1210 cells after 72 hrs by phosphatase assay; type: functional, cell-based; details: L1210, 72 h

IC50 (HCT-116) [nM] | IC50 (L1210) [nM] | Structure (SMILES) | IC50 [1] [nM]
1.7 | 1.3 | CC[C@]1(NC(=O)c2ccc(OC(F)(F)F)c(OC)c2)C[C@H]2CN(CCc3c([nH]c4ccccc34)[C@@](C(=O)OC)(c3cc4c(cc3OC)N(C)[C@H]3[C@@](O)(C(=O)OC)[C@H](OC(C)=O)[C@]5(CC)C=CCN6CC[C@]43[C@@H]65)C2)C1 | 6.9
5.8 | 5.6 | CC[C@]1(NC(=O)c2ccc(NC(=O)OC(C)(C)C)c(C)c2)C[C@H]2CN(CCc3c([nH]c4ccccc34)[C@@](C(=O)OC)(c3cc4c(cc3OC)N(C)[C@H]3[C@@](O)(C(=O)OC)[C@H](OC(C)=O)[C@]5(CC)C=CCN6CC[C@]43[C@@H]65)C2)C1 | 30
0.6 | 0.7 | CC[C@]1(NC(=O)c2cnc3ccccc3c2)C[C@H]2CN(CCc3c([nH]c4ccccc34)[C@@](C(=O)OC)(c3cc4c(cc3OC)N(C)[C@H]3[C@@](O)(C(=O)OC)[C@H](OC(C)=O)[C@]5(CC)C=CCN6CC[C@]43[C@@H]65)C2)C1 | 5.7
6.3 | 5 | CC[C@]1(NC(=O)c2cccc(Br)c2)C[C@H]2CN(CCc3c([nH]c4ccccc34)[C@@](C(=O)OC)(c3cc4c(cc3OC)N(C)[C@H]3[C@@](O)(C(=O)OC)[C@H](OC(C)=O)[C@]5(CC)C=CCN6CC[C@]43[C@@H]65)C2)C1 | 60
1.4 | 1.8 | CC[C@]1(NC(=O)c2ccc(F)cc2)C[C@H]2CN(CCc3c([nH]c4ccccc34)[C@@](C(=O)OC)(c3cc4c(cc3OC)N(C)[C@H]3[C@@](O)(C(=O)OC)[C@H](OC(C)=O)[C@]5(CC)C=CCN6CC[C@]43[C@@H]65)C2)C1 | 25
5.7 | 5.9 | CC[C@]1(NC(=O)/C=C/c2cccnc2)C[C@H]2CN(CCc3c([nH]c4ccccc34)[C@@](C(=O)OC)(c3cc4c(cc3OC)N(C)[C@H]3[C@@](O)(C(=O)OC)[C@H](OC(C)=O)[C@]5(CC)C=CCN6CC[C@]43[C@@H]65)C2)C1 | 320
3.3 | 4.3 | CC[C@]1(NC(=O)c2ccc(C(F)(F)F)cc2)C[C@H]2CN(CCc3c([nH]c4ccccc34)[C@@](C(=O)OC)(c3cc4c(cc3OC)N(C)[C@H]3[C@@](O)(C(=O)OC)[C@H](OC(C)=O)[C@]5(CC)C=CCN6CC[C@]43[C@@H]65)C2)C1 | 55
0.4 | 0.4 | CC[C@]1(NC(=O)c2ccc3ccncc3c2)C[C@H]2CN(CCc3c([nH]c4ccccc34)[C@@](C(=O)OC)(c3cc4c(cc3OC)N(C)[C@H]3[C@@](O)(C(=O)OC)[C@H](OC(C)=O)[C@]5(CC)C=CCN6CC[C@]43[C@@H]65)C2)C1 | 3.7
6.5 | 5 | CC[C@]1(NC(=O)c2ccc3cc(NC(=O)OC(C)(C)C)ccc3c2)C[C@H]2CN(CCc3c([nH]c4ccccc34)[C@@](C(=O)OC)(c3cc4c(cc3OC)N(C)[C@H]3[C@@](O)(C(=O)OC)[C@H](OC(C)=O)[C@]5(CC)C=CCN6CC[C@]43[C@@H]65)C2)C1 | 60
6.2 | 4.8 | CC[C@]1(NC(=O)c2ccc(C#N)c(C)c2)C[C@H]2CN(CCc3c([nH]c4ccccc34)[C@@](C(=O)OC)(c3cc4c(cc3OC)N(C)[C@H]3[C@@](O)(C(=O)OC)[C@H](OC(C)=O)[C@]5(CC)C=CCN6CC[C@]43[C@@H]65)C2)C1 | 65
490 | 450 | CC[C@]1(NS(=O)(=O)c2cccc([N+](=O)[O-])c2)C[C@H]2CN(CCc3c([nH]c4ccccc34)[C@@](C(=O)OC)(c3cc4c(cc3OC)N(C)[C@H]3[C@@](O)(C(=O)OC)[C@H](OC(C)=O)[C@]5(CC)C=CCN6CC[C@]43[C@@H]65)C2)C1 | 430
0.6 | 0.6 | CC[C@]1(NC(=O)c2ccc3ncoc3c2)C[C@H]2CN(CCc3c([nH]c4ccccc34)[C@@](C(=O)OC)(c3cc4c(cc3OC)N(C)[C@H]3[C@@](O)(C(=O)OC)[C@H](OC(C)=O)[C@]5(CC)C=CCN6CC[C@]43[C@@H]65)C2)C1 | 30
0.3 | 0.3 | CC[C@]1(NC(=O)c2ccc3c(c2)OCCN3C)C[C@H]2CN(CCc3c([nH]c4ccccc34)[C@@](C(=O)OC)(c3cc4c(cc3OC)N(C)[C@H]3[C@@](O)(C(=O)OC)[C@H](OC(C)=O)[C@]5(CC)C=CCN6CC[C@]43[C@@H]65)C2)C1 | 4.9
5.4 | 5.5 | CC[C@]1(NC(=O)c2ccc(-c3ccccc3)cc2)C[C@H]2CN(CCc3c([nH]c4ccccc34)[C@@](C(=O)OC)(c3cc4c(cc3OC)N(C)[C@H]3[C@@](O)(C(=O)OC)[C@H](OC(C)=O)[C@]5(CC)C=CCN6CC[C@]43[C@@H]65)C2)C1 | 60
3.5 | 2.5 | CC[C@]1(NC(=O)c2ccc3cc(OC)ccc3c2)C[C@H]2CN(CCc3c([nH]c4ccccc34)[C@@](C(=O)OC)(c3cc4c(cc3OC)N(C)[C@H]3[C@@](O)(C(=O)OC)[C@H](OC(C)=O)[C@]5(CC)C=CCN6CC[C@]43[C@@H]65)C2)C1 | 20

Structure (SMILES) | IC50 (HCT-116) [nM] | IC50 (L1210) [nM] | IC50 [1] [nM]
CC[C@]1(NC(=O)c2cccs2)C[C@H]2CN(CCc3c([nH]c4ccccc34)[C@@](C(=O)OC)(c3cc4c(cc3OC)N(C)[C@H]3[C@@](O)(C(=O)OC)[C@H](OC(C)=O)[C@]5(CC)C=CCN6CC[C@]43[C@@H]65)C2)C1 | 0.6 | 0.6 | 6.7
CC[C@]1(NC(=O)c2ccc(OC)c(Cl)c2)C[C@H]2CN(CCc3c([nH]c4ccccc34)[C@@](C(=O)OC)(c3cc4c(cc3OC)N(C)[C@H]3[C@@](O)(C(=O)OC)[C@H](OC(C)=O)[C@]5(CC)C=CCN6CC[C@]43[C@@H]65)C2)C1 | 5.1 | 3.7 | 8.9
CC[C@]1(NC(=O)C(c2ccccc2)c2ccccc2)C[C@H]2CN(CCc3c([nH]c4ccccc34)[C@@](C(=O)OC)(c3cc4c(cc3OC)N(C)[C@H]3[C@@](O)(C(=O)OC)[C@H](OC(C)=O)[C@]5(CC)C=CCN6CC[C@]43[C@@H]65)C2)C1 | 3800 | 760 | 5100
CC[C@]1(NC(=O)c2ccc(C)c(OC)c2)C[C@H]2CN(CCc3c([nH]c4ccccc34)[C@@](C(=O)OC)(c3cc4c(cc3OC)N(C)[C@H]3[C@@](O)(C(=O)OC)[C@H](OC(C)=O)[C@]5(CC)C=CCN6CC[C@]43[C@@H]65)C2)C1 | 3.3 | 4.2 | 6.9
CC[C@]1(NC(=O)c2ccc(OC(F)(F)F)cc2)C[C@H]2CN(CCc3c([nH]c4ccccc34)[C@@](C(=O)OC)(c3cc4c(cc3OC)N(C)[C@H]3[C@@](O)(C(=O)OC)[C@H](OC(C)=O)[C@]5(CC)C=CCN6CC[C@]43[C@@H]65)C2)C1 | 4.4 | 5.9 | 8.4
CC[C@]1(NC(=O)c2cccnc2)C[C@H]2CN(CCc3c([nH]c4ccccc34)[C@@](C(=O)OC)(c3cc4c(cc3OC)N(C)[C@H]3[C@@](O)(C(=O)OC)[C@H](OC(C)=O)[C@]5(CC)C=CCN6CC[C@]43[C@@H]65)C2)C1 | 0.6 | 0.7 | 50
